In general, IC50 refers to the concentration at which inhibition is half-maximal. Read a high IC50 as lower potency.

SMILES strings stand for the structures.

The target of the first assay is T1, Rat FAAH (Rattus norvegicus, UniProt P97612).
T1 construct: expressed in transfected cells
T1 sequence (P97612 1-579): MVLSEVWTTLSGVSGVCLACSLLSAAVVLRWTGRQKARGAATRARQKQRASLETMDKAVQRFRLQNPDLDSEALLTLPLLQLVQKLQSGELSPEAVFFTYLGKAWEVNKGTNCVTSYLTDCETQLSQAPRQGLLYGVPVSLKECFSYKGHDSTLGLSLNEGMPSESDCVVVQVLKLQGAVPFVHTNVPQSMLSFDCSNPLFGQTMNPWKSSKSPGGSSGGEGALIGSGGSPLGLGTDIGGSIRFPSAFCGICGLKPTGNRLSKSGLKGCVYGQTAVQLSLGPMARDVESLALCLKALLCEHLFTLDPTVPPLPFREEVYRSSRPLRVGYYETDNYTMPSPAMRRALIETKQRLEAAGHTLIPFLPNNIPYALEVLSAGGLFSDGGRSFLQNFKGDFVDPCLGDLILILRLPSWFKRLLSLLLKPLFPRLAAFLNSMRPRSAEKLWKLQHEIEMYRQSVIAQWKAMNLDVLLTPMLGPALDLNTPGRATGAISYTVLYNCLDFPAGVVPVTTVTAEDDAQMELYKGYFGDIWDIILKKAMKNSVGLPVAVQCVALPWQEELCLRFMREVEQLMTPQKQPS
The assay can be described thus: Assay Method 2: FAAH assay, 3H-anandamide hydrolysis in cell homogenate. The class given is biochemical. The note with it: transfected SK-N-MC cell homogenate, 80 nM 3H-AEA, 1 h rt, > = solubility limit or highest concentration tested. The method, then: A. Transfection of Cells with Rat FAAH
(§1) A 10-cm tissue culture dish with a confluent monolayer of SK-N-MC cells was split 2 days (d) prior to transfection. Using sterile technique, the media was removed and the cells were detached from the dish by the addition of trypsin. One fifth of the cells were then placed onto a new 10-cm dish. Cells were grown in a 37° C. incubator with 5% CO2 in Minimal Essential Media Eagle with 10% Fetal Bovine Serum. After 2 d, cells were approximately 80% confluent. These cells were removed from the dish with trypsin and pelleted in a clinical centrifuge. The pellet was re-suspended in 400 μL complete media and transferred to an electroporation cuvette with a 0.4 cm gap between the electrodes. Supercoiled rat FAAH cDNA (1 μg) was added to the cells and mixed. The voltage for the electroporation was set at 0.25 kV, and the capacitance was set at 960 μF. After electroporation, the cells were diluted into complete media (10 mL) and plated onto four 10-cm dishes. Because of the variability in the efficiency of electroporation, four different concentrations of cells were plated. The ratios used were 1:20, 1:10, and 1:5, with the remainder of the cells being added to the fourth dish. The cells were allowed to recover for 24 h before adding the selection media (complete media with 600 μg/mL G418). After 10 d, dishes were analyzed for surviving colonies of cells. Dishes with well-isolated colonies were used. Cells from individual colonies were isolated and tested.
(§2) The assay mixture consisted of 50 μL of the cell homogenate, 10 μL of the test compound, and 40 μL of anandamide [1-^3H-ethanolamine] (^3H-AEA, Perkin-Elmer, 10.3 Ci/mmol), which was added last, for a final tracer concentration of 80 nM. The reaction mixture was incubated at it for 1 h. During the incubation, 96-well Multiscreen filter plates (catalog number MAFCNOB50; Millipore, Bedford, Mass., USA) were loaded with 25 μL of activated charcoal (Multiscreen column loader, catalog number MACL09625, Millipore) and washed once with 100 μL of MeOH. Also during the incubation, 96-well DYNEX MicroLite plates (catalog number NL510410) were loaded with 100 μL of MicroScint40 (catalog number 6013641, Packard Bioscience, Meriden, Conn., USA). After the 1 h incubation, 60 μL of the reaction mixture were transferred to the charcoal plates, which were then assembled on top of the DYNEX plates using Centrifuge Alignment Frames (catalog number MACF09604, Millipore). The unbound labeled ethanolamine . was centrifuged through to the bottom plate (5 min at 2000 rpm), which was preloaded with the scintillant, as described above. The plates were sealed and left at rt for 1 h before counting on a Hewlett Packard TopCount.
(§3) Where activity is shown as greater than (>) a particular value, the value is the solubility limit of the compound in the assay medium or the highest concentration tested in the assay.
As for `COc1ccc(CN2CCC(C(=O)c3ncco3)CC2)cc1` [Example 61, [1-(4-Methoxy-benzyl)-piperidin-4-yl]-oxazol-2-yl-methanone], half-maximal inhibition (IC50) required 1.2 µM.

For `CS(=O)(=O)c1cc(Br)ccc1CN1CCC(C(=O)c2ncco2)CC1` [Example 25, [1-(4-Bromo-2-methanesulfonyl-benzyl)-piperidin-4-yl]-oxazol-2-yl-methanone], half-maximal inhibition (IC50) was put at 0.023 µM.

In the case of `O=C(c1ncco1)C1CCN(C(=O)CCc2ccccc2)CC1` [Example 14, 1-[4-(Oxazole-2-carbonyl)-piperidin-1-yl]-3-phenyl-propan-1-one], the IC50 is 9 µM.

In the case of `O=C(c1ncco1)C1CCN(Cc2cccc(C(F)(F)F)c2)CC1` [Example 18, Oxazol-2-yl-[1-(3-trifluoromethyl-benzyl)-piperidin-4-yl]-methanone], it took 0.096 µM to reach half-maximal inhibition (IC50).

As for `COc1cccc(CN2CCC(C(=O)c3ncco3)CC2)c1` [Example 62, [1-(3-Methoxy-benzyl)-piperidin-4-yl]-oxazol-2-yl-methanone], the IC50 is 1.3 µM.

Take `O=C(c1ncco1)C1CCN(Cc2ccc(Cl)cc2)CC1` [Example 35, [1-(4-Chloro-benzyl)-piperidin-4-yl]-oxazol-2-yl-methanone]: the IC50 was determined as 0.04 µM.

Molecule `O=C(c1ncco1)C1CCN(Cc2nc3ccccc3cc2Cl)CC1` [Example 80, [1-(3-Chloro-quinolin-2-ylmethyl)-piperidin-4-yl]-oxazol-2-yl-methanone] returned an IC50 of 0.07 µM.

Turning to `O=C(c1ncco1)C1CCN(Cc2cccc(Cl)c2)CC1` [Example 34, [1-(3-Chloro-benzyl)-piperidin-4-yl]-oxazol-2-yl-methanone], the IC50 came to 0.3 µM.

Regarding `O=C(c1ncco1)C1CCN(Cc2cccc(Br)c2)CC1` [Example 52, [1-(3-Bromo-benzyl)-piperidin-4-yl]-oxazol-2-yl-methanone], the IC50 is 0.2 µM.

The molecule `O=C(c1ncco1)C1CCN(Cc2cnc3ccccc3n2)CC1` [Example 78, Oxazol-2-yl-(1-quinoxalin-2-ylmethyl-piperidin-4-yl)-methanone] displayed an IC50 of 0.09 µM.

With `O=C(c1ncco1)C1CCN(Cc2ccc3cccc(Cl)c3n2)CC1` [Example 75, [1-(8-Chloro-quinolin-2-ylmethyl)-piperidin-4-yl]-oxazol-2-yl-methanone], 0.004 µM corresponded to half-maximal inhibition (IC50).

Molecule `O=C(c1ncco1)C1CCN(Cc2ccc(Oc3ccccc3)cc2)CC1` [Example 57, Oxazol-2-yl-[1-(4-phenoxy-benzyl)-piperidin-4-yl]-methanone] showed an IC50 of 0.532 µM.

Turning to `O=C(c1ncco1)C1CCN(Cc2ccc3c(c2)OC(F)(F)O3)CC1` [Example 71, [1-(2,2-Difluoro-benzo[1,3]dioxol-5-ylmethyl)-piperidin-4-yl]-oxazol-2-yl-methanone], the midpoint of inhibition, the IC50, lay at 0.024 µM.

`O=C(c1ncco1)C1CCN(Cc2ccc3ccccc3n2)CC1` [Example 84, Oxazol-2-yl-(1-quinolin-2-ylmethyl-piperidin-4-yl)-methanone] had an IC50 of 0.023 µM.

As to `O=C(c1ncco1)C1CCN(Cc2ccc3[nH]ccc3c2)CC1` [Example 42], the IC50 was greater than 10 µM.

In turn, `O=C(c1ncco1)C1CCN(Cc2cnc3ccccc3c2)CC1` [Example 85, Oxazol-2-yl-(1-quinolin-3-ylmethyl-piperidin-4-yl)-methanone] yielded an IC50 of 0.043 µM.

Consider `O=C(c1ncco1)C1CCN(Cc2cccc3ccccc23)CC1` [Example 48, (1-Naphthalen-1-ylmethyl-piperidin-4-yl)-oxazol-2-yl-methanone], for which half-maximal inhibition (IC50) was put at 0.063 µM.

`COc1ccccc1C(=O)N1CCC(C(=O)c2ncco2)CC1` [Example 8, [1-(2-Methoxy-benzoyl)-piperidin-4-yl]-oxazol-2-yl-methanone] registered an IC50 greater than 10 µM.

The next assay concerns the target T2, FAAH (Homo sapiens, UniProt O00519).
T2 sequence (O00519 1-579): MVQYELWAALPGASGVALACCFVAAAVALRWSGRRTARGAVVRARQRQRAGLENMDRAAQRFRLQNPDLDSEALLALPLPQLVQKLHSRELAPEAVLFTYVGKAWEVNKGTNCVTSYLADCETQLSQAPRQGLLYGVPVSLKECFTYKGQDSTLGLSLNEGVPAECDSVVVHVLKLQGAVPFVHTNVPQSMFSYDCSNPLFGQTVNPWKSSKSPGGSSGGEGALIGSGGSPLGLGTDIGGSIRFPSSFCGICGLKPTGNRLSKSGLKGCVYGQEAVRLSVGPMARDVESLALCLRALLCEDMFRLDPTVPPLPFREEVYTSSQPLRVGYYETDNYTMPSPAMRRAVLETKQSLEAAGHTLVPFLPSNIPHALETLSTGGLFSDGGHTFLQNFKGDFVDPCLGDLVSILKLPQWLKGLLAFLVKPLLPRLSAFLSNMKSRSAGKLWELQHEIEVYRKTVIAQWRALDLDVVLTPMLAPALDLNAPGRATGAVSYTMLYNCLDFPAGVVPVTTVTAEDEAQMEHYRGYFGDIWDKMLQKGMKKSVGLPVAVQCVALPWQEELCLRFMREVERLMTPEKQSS
Briefly: Assay Method 1: FAAH assay, 3H-anandamide hydrolysis in cell homogenate. The format is biochemical. On the set-up: expressed in transfected cells. The note with it: T84 or transfected SK-N-MC cell homogenate, 80 nM 3H-AEA, 1 h rt, > = solubility limit or highest concentration tested. The method, then:
A. Transfection of Cells with Human FAAH
as §1, with “Supercoiled human” for “Supercoiled rat”
as §2, with “at rt” for “at it”, “ethanolamine” for “ethanolamine .”
as §3
`COc1ccc(CN2CCC(C(=O)c3ncco3)CC2)cc1` [Example 61, [1-(4-Methoxy-benzyl)-piperidin-4-yl]-oxazol-2-yl-methanone]: 0.208 µM corresponded to half-maximal inhibition (IC50).

For the molecule `CS(=O)(=O)c1cc(Br)ccc1CN1CCC(C(=O)c2ncco2)CC1` [Example 25, [1-(4-Bromo-2-methanesulfonyl-benzyl)-piperidin-4-yl]-oxazol-2-yl-methanone], the IC50 came to 0.013 µM.

As to `O=C(c1ncco1)C1CCN(C(=O)CCc2ccccc2)CC1` [Example 14, 1-[4-(Oxazole-2-carbonyl)-piperidin-1-yl]-3-phenyl-propan-1-one], the IC50 stood at 1.6 µM.

In the case of `O=C(c1ncco1)C1CCN(Cc2cccc(C(F)(F)F)c2)CC1` [Example 18, Oxazol-2-yl-[1-(3-trifluoromethyl-benzyl)-piperidin-4-yl]-methanone], the IC50 worked out at 0.051 µM.

`COc1cccc(CN2CCC(C(=O)c3ncco3)CC2)c1` [Example 62, [1-(3-Methoxy-benzyl)-piperidin-4-yl]-oxazol-2-yl-methanone] registered an IC50 of 0.244 µM.

`O=C(c1ncco1)C1CCN(Cc2ccc(Cl)cc2)CC1` [Example 35, [1-(4-Chloro-benzyl)-piperidin-4-yl]-oxazol-2-yl-methanone] gave an IC50 of 0.019 µM.

Consider `O=C(c1ncco1)C1CCN(Cc2nc3ccccc3cc2Cl)CC1` [Example 80, [1-(3-Chloro-quinolin-2-ylmethyl)-piperidin-4-yl]-oxazol-2-yl-methanone], for which inhibition was half-maximal at 0.016 µM (IC50).

`O=C(c1ncco1)C1CCN(Cc2cccc(Cl)c2)CC1` [Example 34, [1-(3-Chloro-benzyl)-piperidin-4-yl]-oxazol-2-yl-methanone] showed a half-inhibitory concentration (IC50) of 0.078 µM.

As for `O=C(c1ncco1)C1CCN(Cc2cccc(Br)c2)CC1` [Example 52, [1-(3-Bromo-benzyl)-piperidin-4-yl]-oxazol-2-yl-methanone], 0.035 µM corresponded to half-maximal inhibition (IC50).

`O=C(c1ncco1)C1CCN(Cc2cnc3ccccc3n2)CC1` [Example 78, Oxazol-2-yl-(1-quinoxalin-2-ylmethyl-piperidin-4-yl)-methanone] showed a 50% inhibitory concentration (IC50) of 0.03 µM.

With `O=C(c1ncco1)C1CCN(Cc2ccc3cccc(Cl)c3n2)CC1` [Example 75, [1-(8-Chloro-quinolin-2-ylmethyl)-piperidin-4-yl]-oxazol-2-yl-methanone], the concentration for half-maximal inhibition (IC50) amounted to 0.004 µM.

In turn, `O=C(c1ncco1)C1CCN(Cc2ccc(Oc3ccccc3)cc2)CC1` [Example 57, Oxazol-2-yl-[1-(4-phenoxy-benzyl)-piperidin-4-yl]-methanone] had an IC50 of 0.21 µM.

Take `O=C(c1ncco1)C1CCN(Cc2ccc3c(c2)OC(F)(F)O3)CC1` [Example 71, [1-(2,2-Difluoro-benzo[1,3]dioxol-5-ylmethyl)-piperidin-4-yl]-oxazol-2-yl-methanone]: the IC50 was determined as 0.027 µM.

`O=C(c1ncco1)C1CCN(Cc2ccc3ccccc3n2)CC1` [Example 84, Oxazol-2-yl-(1-quinolin-2-ylmethyl-piperidin-4-yl)-methanone] yielded an IC50 of 0.013 µM.

With `O=C(c1ncco1)C1CCN(Cc2ccc3[nH]ccc3c2)CC1` [Example 42], the IC50 worked out at 0.519 µM.

`O=C(c1ncco1)C1CCN(Cc2cnc3ccccc3c2)CC1` [Example 85, Oxazol-2-yl-(1-quinolin-3-ylmethyl-piperidin-4-yl)-methanone] came in with an IC50 of 0.018 µM.

On to `O=C(c1ncco1)C1CCN(Cc2cccc3ccccc23)CC1` [Example 48, (1-Naphthalen-1-ylmethyl-piperidin-4-yl)-oxazol-2-yl-methanone], for which the half-inhibitory concentration (IC50) stood at 0.101 µM.

For the molecule `COc1ccccc1C(=O)N1CCC(C(=O)c2ncco2)CC1` [Example 8, [1-(2-Methoxy-benzoyl)-piperidin-4-yl]-oxazol-2-yl-methanone], the IC50 was greater than 10 µM.

For the origin of these results see patent US20100292266A1, “Oxazolyl Piperidine Modulators of Fatty Acid Amide Hydrolase” (priority 2006, published 2010).
